Measured values taken from PubChem BioAssay AID1963834 (Molecular Pharmacology Branch, DTP, NCI, 2024).
Several values for one entry are separate records, joined by “and”; a condition that tells them apart may be missing. Equal entries are not always repeated.

Tested on: 873145-292-R-J1-PDC complex spheroid viability
Experiment: Anticancer human tumor 873145-292-R-J1-PDC patient-derived renal clear cell carcinoma cell line growth inhibition [POLQ]
Conditions: for viability, T/C: stronger effect = lower value
Procedure: Multicellular complex tumor spheroid response to Polymerase (POL) inhibitors (novobiocin, ART-558, RP6685) in combination with a variety of drugs and investigational agents in selected tumor cell lines
The POL inhibitors (novobiocin, ART-558, and RP6685) were evaluated both individually and in combination with standard of care and investigational anticancer small molecules within a complex spheroid model of solid tumors. . Complex spheroids include a stromal component modeled by human endothelial cells (HUVEC) and fibroblasts modeled by human mesenchymal stem cells (MSCs). The concentration ranges selected for each drug and investigational agent were based upon clinically achievable concentrations if the clinical Cmax of the agent was known.
Compounds. The drugs and investigational agents: novobiocin (NSC847541), ART-558 (NSC835418), RP-6685 (NSC848927), peposertib (NSC802822), ceralasertib (NSC780249), elimusertib (NSC800525), camonsertib (NSC841442), AZD-1390 (NSC803789), olaparib (NSC753686), talazoparib (NSC767125), rucaparib (NSC756644), sotorasib (NSC818433), MRTX-1133 (NSC836407), SN-38 (NSC673596), topotecan (NSC609699), epotoside (NSC141540), doxorubicin (NSC123127), gemcitabine (NSC613327), 5-fluorouracil (NSC19893), paclitaxel (NSC125973), vemurafenib (NSC761431), MSA-2 (NSC828583), SN-011 (NSC837082), adavosertib (NSC754352), prexasertib (NSC758257), carboplatin (NSC241240) and oxaliplatin (NSC266046), were obtained from the National Cancer Institute (NCI) Developmental Therapeutics Program Chemical Repository (21). The FDA-approved anticancer drug set is available from the Developmental Therapeutics Program at https://dtp.cancer.gov/organization/dscb/obtaining/. […] The stock solutions were prepared in dimethyl sulfoxide (DMSO, Sigma-Aldrich, St. Louis, MO, cat. D2650), except for the platinum compounds which were prepared in saline (Quality Biological, Gaithersburg, MD, cat. 114-055-101), at 800-fold the tested concentration and stored at -70 degrees C prior to their use. All drugs and investigational agents were tested over a range starting from a high concentration at or near the clinical Cmax and decreasing in half-log increments. If the clinical Cmax for an agent had not been determined, the highest concentration tested was 10 microM, except for SN-38, which was tested at a high concentration of 1 microM.
Cell Culture. All cells were maintained in an incubator at 37 degrees C and 5% CO2 with 95% humidity. The PDC lines were cultured according to standard operating procedures established by the NCI PDMR (https://pdmr.cancer.gov). Table 3 of the manuscript, lists the cell lines along with the number of the three cell types plated to form the mct-spheroids and media for tumor cell growth. After thawing, all PDC lines, except 997537-175-T-J1-PDC and 415267-285-R-J2-PDC, were cultured in Matrigel-coated flasks prepared with a working solution of 1X Ham's F-12 nutrient mix, without supplementation (Thermo Fisher Scientific, cat. 11765054), 100 U/mL penicillin-streptomycin (Thermo Fisher Scientific, cat. 15140122), and 2.5% Matrigel (Corning Inc., Corning, NY, cat. 354248) for the first three passages. The two PDC lines 997537-175-T-J1-PDC and 415267-285-R-J2-PDC were cultured on uncoated flasks. The 857933-349-R-J2-PDC line was cultured in 6C/Colon 1B media containing advanced DMEM/F-12 (Thermo Fisher Scientific, cat. 12634028), 10 mM HEPES (Thermo Fisher Scientific, cat. 15630080), 1X GlutaMAX supplement (Thermo Fisher Scientific, cat. 35050061), 0.1 mg/mL primocin (InvivoGen, San Diego, CA, cat. ant-pm-2), 10% defined fetal bovine serum, heat inactivated (HyClone Laboratories Inc., Logan, UT, cat. SH30070.03HI), 50% L-WRN conditioned media (ATCC, cat. CRL-3276), 1.25 mM N-Acetyl-L-cysteine (Sigma-Aldrich, cat. A9165), 10 mM nicotinamide (Sigma-Aldrich, cat. N0636), 1X B-27 supplement (Thermo Fisher Scientific, cat. 17504044), 1X N-2 supplement (Thermo Fisher Scientific, cat. […]
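Also: spheroids exposed to compounds for 7 days before viability readout.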
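For viability, T/C in this document: luminescence signal used as surrogate for viable cell content; 100% = DMSO vehicle control viability.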

CC(C)n1c(=O)n(C)c2cnc3cc(F)c(-c4ccc(OCCCN5CCCCC5)nc4)cc3c21
viability, T/C (compound 0.0316 µM): 97.8% and 99.3% and 112% | viability, T/C (compound 0.1 µM): 103% and 100% and 93.3% | viability, T/C (compound 0.316 µM): 94% and 101% and 112% | viability, T/C (compound 1 µM): 92.8% and 108% and 100% | viability, T/C (compound 3.16 µM): 94.8% (2×) and 96.1% | viability, T/C (compound 10 µM): 77.7% and 95.8% and 91.3% | IC50 (curve of compound): > 10 µM

COc1cccc2c1C(=O)c1c(O)c3c(c(O)c1C2=O)CC(O)(C(=O)CO)CC3OC1CC(N)C(O)C(C)O1 (stereo unspecified)
viability, T/C (compound 0.0316 µM): 79.5% and 101% and 88.3% | viability, T/C (compound 0.1 µM): 68.8% and 87.2% and 90.1% | viability, T/C (compound 0.316 µM): 70.1% and 92.2% and 85.7% | viability, T/C (compound 1 µM): 68.8% and 84.2% and 79.3% | viability, T/C (compound 3.16 µM): 3.4% and 5.11% and 4.22% | viability, T/C (compound 10 µM): 2.7% and 3.08% and 3.02% | IC50 (curve of compound): 1.39 µM and 1.65 µM and 1.57 µM

CNCc1ccc(-c2[nH]c3cc(F)cc4c3c2CCNC4=O)cc1 + Nc1ccc(C#CCN(C(=O)Cc2ncc(C(F)(F)F)cc2C(F)(F)F)c2ccc(F)cc2)nn1
IC50 (curve of first compound, second compound 0.0316 µM): > 10 µM | IC50 (curve of first compound, second compound 0.1 µM): > 10 µM | IC50 (curve of first compound, second compound 0.316 µM): > 10 µM | IC50 (curve of first compound, second compound 1 µM): > 10 µM | IC50 (curve of first compound, second compound 3.16 µM): > 10 µM | IC50 (curve of first compound, second compound 10 µM): > 10 µM | viability, T/C (second compound 0.0316 µM, first compound 0.0316 µM): 99% | viability, T/C (second compound 0.0316 µM, first compound 0.1 µM): 92.8% | viability, T/C (second compound 0.0316 µM, first compound 0.316 µM): 89.1% | viability, T/C (second compound 0.0316 µM, first compound 1 µM): 87.7% | viability, T/C (second compound 0.0316 µM, first compound 3.16 µM): 95.5% | viability, T/C (second compound 0.0316 µM, first compound 10 µM): 103% | viability, T/C (second compound 0.1 µM, first compound 0.0316 µM): 107% | viability, T/C (second compound 0.1 µM, first compound 0.1 µM): 105% | viability, T/C (second compound 0.1 µM, first compound 0.316 µM): 83.5% | viability, T/C (second compound 0.1 µM, first compound 1 µM): 88.9% | viability, T/C (second compound 0.1 µM, first compound 3.16 µM): 88.3% | viability, T/C (second compound 0.1 µM, first compound 10 µM): 92.8% | viability, T/C (second compound 0.316 µM, first compound 0.0316 µM): 97.3% | viability, T/C (second compound 0.316 µM, first compound 0.1 µM): 95.8% | viability, T/C (second compound 0.316 µM, first compound 0.316 µM): 88.6% | viability, T/C (second compound 0.316 µM, first compound 1 µM): 92.4% | viability, T/C (second compound 0.316 µM, first compound 3.16 µM): 91.6% | viability, T/C (second compound 0.316 µM, first compound 10 µM): 89.2% | viability, T/C (second compound 1 µM, first compound 0.0316 µM): 102% | viability, T/C (second compound 1 µM, first compound 0.1 µM): 92.9% | viability, T/C (second compound 1 µM, first compound 0.316 µM): 102% | viability, T/C (second compound 1 µM, first compound 1 µM): 94.7% | viability, T/C (second compound 1 µM, first compound 3.16 µM): 103% | viability, T/C (second compound 1 µM, first compound 10 µM): 90.4% | viability, T/C (second compound 3.16 µM, first compound 0.0316 µM): 100% | viability, T/C (second compound 3.16 µM, first compound 0.1 µM): 104% | viability, T/C (second compound 3.16 µM, first compound 0.316 µM): 108% | viability, T/C (second compound 3.16 µM, first compound 1 µM): 95.4% | viability, T/C (second compound 3.16 µM, first compound 3.16 µM): 97.5% | viability, T/C (second compound 3.16 µM, first compound 10 µM): 100% | viability, T/C (second compound 10 µM, first compound 0.0316 µM): 109% | viability, T/C (second compound 10 µM, first compound 0.1 µM): 104% | viability, T/C (second compound 10 µM, first compound 0.316 µM): 103% | viability, T/C (second compound 10 µM, first compound 1 µM): 100% | viability, T/C (second compound 10 µM, first compound 3.16 µM): 99.4% | viability, T/C (second compound 10 µM, first compound 10 µM): 105%
